Tests used:
[1] = molecular target: T1, hPTPRM (Homo sapiens, UniProt P28827); experiment: In vitro PTPase assay (DiFMUP), PTPRM; type: biochemical; conditions: 60-min preincubation
T1 construct: Recombinant proteins corresponding to the entire intracellular regions (ICRs) of PTPRZ1, PTPRA, and PTPRM; made in house; host or cells: baculovirus-silkworm expression system
Description: (§1) Figure 4 NAZ2329, an allosteric inhibitor of R5 RPTP subfamily members. (A) Structure of NAZ2329. (B) Effect of preincubation of NAZ2329 on its inhibitory activity against PTPRZ. Recombinant human PTPRZ1 enzyme (the whole intracellular region) was premixed with NAZ2329 for the indicated times and followed by addition of a fluorogenic DiFMUP (non-specific PTP substrate, 6,8-difluoro-4-methylumbiliferyl phosphate) to measure PTP inhibitory activity. (C) Time dependence. The PTPRZ1 enzyme was added to the inhibitor–substrate mixture, and the inhibitory activity was determined at each time point relative to the vehicle control. (D) Reversibility of inhibition. […] The mixture was then 20-fold diluted, and recovered PTP activity was expressed as the relative activity compared with the vehicle-treated enzyme. […] PTPRZ1 enzymes were preincubated with NAZ2329 for 60 min, and the PTP activity was measured using DiFMUP. […]
(§2) Recombinant proteins corresponding to the entire intracellular regions (ICRs) of PTPRZ1, PTPRA, and PTPRM were expressed using a baculovirus-silkworm expression system, and purified as described. The ICRs of PTPRG, PTPRS, and PTPRB and the catalytic domains of PTPN1 and PTPN6 were expressed as glutathione-S-transferase (GST) fusion proteins from each pGEX plasmid in Escherichia coli strain BL21 (ref. [6]). […]

[2] = molecular target: T2, mPTPRB (Mus musculus, UniProt B2RU80); experiment: In vitro PTPase assay (DiFMUP), PTPRB; type: biochemical; conditions: 60-min preincubation
T2 construct: The ICRs of PTPRG, PTPRS, and PTPRB and the catalytic domains of PTPN1 and PTPN6; GST (N); made in house; host or cells: Escherichia coli BL21
T2 sequence (B2RU80 1644-1997 limits assumed): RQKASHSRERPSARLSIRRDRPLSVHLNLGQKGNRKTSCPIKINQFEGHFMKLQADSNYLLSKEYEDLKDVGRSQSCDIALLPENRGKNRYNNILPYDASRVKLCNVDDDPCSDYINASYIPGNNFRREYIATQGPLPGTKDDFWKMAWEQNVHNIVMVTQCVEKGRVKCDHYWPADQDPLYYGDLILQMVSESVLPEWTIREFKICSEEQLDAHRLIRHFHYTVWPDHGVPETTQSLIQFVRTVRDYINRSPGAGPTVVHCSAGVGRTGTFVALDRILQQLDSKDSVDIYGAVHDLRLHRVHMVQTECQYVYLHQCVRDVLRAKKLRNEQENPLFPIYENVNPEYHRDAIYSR
Description: as §1, §2

[3] = system: C6 cells; experiment: Cell proliferation assay, C6 cells; type: cell-based, rat; conditions: 48 h, 2% FBS
Description: Figure 7 Cellular effects of NAZ2329 on the malignant phenotypes of C6 cells. (A) Phosphorylation of paxillin at Tyr-118. C6 cells were incubated with NAZ2329 for the indicated periods. Immunoprecipitated paxillin was analyzed by Western blotting using anti-pY118-paxillin and anti-paxillin. Blots are representative of five independent cultures. […] (B) Cell proliferation assay. C6 cells were incubated for 48 h with NAZ2329 in normal medium containing 2% FBS. […] (C) Boyden chamber assay. Cells were allowed to migrate for 3 h. DAPI-stained nuclei are shown before (total) and after (migrated) the removal of cells remaining in the top chamber. Scale bars, 100 µm. […] (D,E) Sphere formation (D) and SOX2 expression (E). C6 cells were cultured in CSC medium for 7 days with indicated concentrations of NAZ2329. Images are representative of five independent cultures. Scale bars, 100 µm. […] (F) Self-renewal of C6 spheres. C6 spheres were initially developed in CSC medium for 7 days, followed by an incubation with NAZ2329 in CSC medium for 5 days. Images are representative of five independent cultures. Scale bars, 100 µm. […]
Cells (3 × 10^4 cells) were inoculated into a 24-well plastic tissue culture plate with 500 µl of DMEM supplemented with 2% FBS and the indicated compounds for 48 h. Cells were harvested by trypsinization and then manually counted with a hemacytometer.

T1 sequence (P28827 765-1452 limits assumed): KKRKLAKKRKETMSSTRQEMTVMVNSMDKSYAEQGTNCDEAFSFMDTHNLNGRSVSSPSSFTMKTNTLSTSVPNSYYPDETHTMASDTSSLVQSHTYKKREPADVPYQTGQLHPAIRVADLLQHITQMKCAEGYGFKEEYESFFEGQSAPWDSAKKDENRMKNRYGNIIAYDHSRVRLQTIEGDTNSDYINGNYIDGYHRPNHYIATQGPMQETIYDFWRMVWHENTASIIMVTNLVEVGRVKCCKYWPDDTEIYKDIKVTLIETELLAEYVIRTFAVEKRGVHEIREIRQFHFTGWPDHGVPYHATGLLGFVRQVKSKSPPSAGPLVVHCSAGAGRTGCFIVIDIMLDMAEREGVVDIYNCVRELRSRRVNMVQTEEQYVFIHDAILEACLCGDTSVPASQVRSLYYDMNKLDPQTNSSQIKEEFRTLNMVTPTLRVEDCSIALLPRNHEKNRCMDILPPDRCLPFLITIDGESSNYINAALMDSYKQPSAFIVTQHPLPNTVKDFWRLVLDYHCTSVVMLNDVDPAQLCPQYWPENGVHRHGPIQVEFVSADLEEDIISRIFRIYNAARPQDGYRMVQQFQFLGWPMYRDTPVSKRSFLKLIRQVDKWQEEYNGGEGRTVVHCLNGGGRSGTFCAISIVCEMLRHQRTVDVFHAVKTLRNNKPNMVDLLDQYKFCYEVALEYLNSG

- IC50 [1]: 56.7 µM
- IC50 [2]: 35.4 µM
Compound: CCOc1ccc(C(F)(F)F)cc1CSc1ccsc1C(=O)NS(=O)(=O)c1ccccc1 [NAZ2329]
- cell proliferation [3]: inhibited cell proliferation

— PMC5514153, “Targeting PTPRZ inhibits stem cell-like properties and tumorigenicity in glioblastoma cells” (Scientific Reports, 2017)
